Laboratory results from ChEMBL document CHEMBL5036330, “Discovery of 8,9-seco-ent-Kaurane Diterpenoids as Potential Leads for the Treatment of Triple-Negative Breast Cancer” (J Med Chem, 2021).
pIC50: −log10 of the molar value. Activity calls are given as the source filed them. The rule behind the calls is not given here.

Experiments:
[1] = tested on: MCF-10A; assay: Cytotoxicity against human MCF-10A cells assessed as reduction in cell viability incubated for 96 hrs by MTT method; assay type: cell-based
[2] = tested on: HEK293; assay: Cytotoxicity against HEK-293 cells assessed as reduction in cell viability incubated for 96 hrs by MTT method; assay type: cell-based; conditions: Homo sapiens, HEK293, 96 h
[3] = tested on: MDA-MB-468; assay: Antiproliferative activity against human MDA-MB-468 cells assessed as supression of long term proliferative capacity measured for 2 weeks by Colony formation assay; assay type: functional, cell-based; conditions: dose 0.05-0.2 µM
[4] = tested on: MDA-MB-231; assay: Induction of apoptosis in human MDA-MB-231 cells assessed as early apoptotic cells at 1 uM measured after 24 hrs by Annexin V/Propidium iodide stain based Flow cytometry (reference value: 3.34%); assay type: functional
[5] = tested on: MDA-MB-231; assay: Induction of apoptosis in human MDA-MB-231 cells assessed as late apoptotic cells at 2 uM measured after 24 hrs by Annexin V/Propidium iodide stain based Flow cytometry (reference value: 2.78%); assay type: functional
[6] = tested on: MDA-MB-231; assay: Induction of apoptosis in human MDA-MB-231 cells assessed as early apoptotic cells at 5 uM measured after 24 hrs by Annexin V/Propidium iodide stain based Flow cytometry (reference value: 3.34%); assay type: functional
[7] = tested on: MDA-MB-468; assay: Induction of apoptosis in human MDA-MB-468 cells assessed as late apoptotic cells at 2 uM measured after 24 hrs by Annexin V/Propidium iodide stain based Flow cytometry (reference value: 3.98%); assay type: functional
[8] = tested on: MDA-MB-468; assay: Anticancer activity in human MDA-MB-468 cells xenografted mouse model assessed as tumor growth inhibition at 5 mg/kg, ip treated for 33 days relative to control; assay type: functional, organism-based; conditions: time 33.0 day
[9] = tested on: MDA-MB-231; assay: Induction of cell cycle arrest in human MDA-MB-231 cells assessed as accumulation of cells at G1 phase at 1 uM measured after 24 hrs by flow cytometry (reference value: 47.7%); assay type: functional
[10] = tested on: MDA-MB-231; assay: Induction of cell cycle arrest in human MDA-MB-231 cells assessed as accumulation of cells at S phase at 2 uM measured after 24 hrs by flow cytometry (reference value: 32.2%); assay type: functional
[11] = tested on: MDA-MB-231; assay: Induction of cell cycle arrest in human MDA-MB-231 cells assessed as accumulation of cells at G1 phase at 5 uM measured after 24 hrs by flow cytometry (reference value: 47.7%); assay type: functional
[12] = tested on: MDA-MB-468; assay: Induction of cell cycle arrest in human MDA-MB-468 cells assessed as accumulation of cells at G2 phase at 5 uM measured after 24 hrs by flow cytometry (reference value: 26.5%); assay type: functional
[13] = tested on: MDA-MB-468; assay: Induction of cell cycle arrest in human MDA-MB-468 cells assessed as accumulation of cells at S phase at 5 uM measured after 24 hrs by flow cytometry (reference value: 46.9%); assay type: functional
[14] = tested on: MDA-MB-231; assay: Induction of mitochondrial depolarization in human MDA-MB-231 cells assessed as aggregates at 2 uM in dark by JC10 staining based fluorescence microscopy (reference value: 94.4%); assay type: functional
[15] = tested on: MDA-MB-231; assay: Induction of mitochondrial depolarization in human MDA-MB-231 cells assessed as monomers at 2 uM in dark by JC10 staining based fluorescence microscopy (reference value: 5.6%); assay type: functional
[16] = tested on: MDA-MB-468; assay: Induction of mitochondrial depolarization in human MDA-MB-468 cells assessed as monomers at 2 uM in dark by JC10 staining based fluorescence microscopy (reference value: 8.4%); assay type: functional
[17] = tested on: MDA-MB-468; assay: Induction of mitochondrial depolarization in human MDA-MB-468 cells assessed as aggregates at 5 uM in dark by JC10 staining based fluorescence microscopy (reference value: 91.6%); assay type: functional
[18] = tested on: MDA-MB-231; assay: Induction of apoptosis in human MDA-MB-231 cells assessed as increase in cleaved caspase 3 at 1 to 5 uM measured after 24 hrs by Western blot analysis; assay type: functional, cell-based; conditions: dose 1-5 µM
[19] = tested on: MDA-MB-468; assay: Induction of apoptosis in human MDA-MB-468 cells assessed as increase in cleaved PARP at 1 to 5 uM measured after 24 hrs by Western blot analysis; assay type: functional, cell-based; conditions: dose 1-5 µM
[20] = tested on: MDA-MB-468; assay: Induction of autophagy in human MDA-MB-468 cells assessed as increase in ATG5 expression at 1 to 5 uM incubated for 24 hrs by Western blot analysis; assay type: functional, cell-based; conditions: dose 1-5 µM
[21] = tested on: MDA-MB-468; assay: Induction of autophagy in human MDA-MB-468 cells assessed as elimination of p62 at 1 to 5 uM incubated for 24 hrs by Western blot analysis; assay type: functional, cell-based; conditions: dose 1-5 µM
[22] = tested on: MDA-MB-231; assay: Antiinvasive activity against in human MDA-MB-231 cells measured at 0.2 uM upto 72 hrs by transwell invasion assay relative to control; assay type: functional; conditions: MDA-MB-231, 72 h, time hrs <=72
[23] = tested on: MDA-MB-231; assay: Antiinvasive activity against in human MDA-MB-231 cells assessed as reduction in beta-catenin expression measured upto 72 hrs by Western blot analysis; assay type: functional, cell-based; conditions: dose 0.1-0.2 µM, time hrs <=72
[24] = tested on: MDA-MB-231; assay: Antiinvasive activity against in human MDA-MB-231 cells assessed as reduction in MMP9 expression measured upto 72 hrs by Western blot analysis; assay type: functional, cell-based; conditions: dose 0.1-0.2 µM, time hrs <=72
[25] = tested on: MDA-MB-231; assay: Effect on Akt expression in human MDA-MB-231 cells measured at 1 to 5 uM after 24 hrs by Western blot analysis; assay type: functional, cell-based; conditions: dose 1-5 µM
[26] = tested on: MDA-MB-231; assay: Effect on mTOR expression in human MDA-MB-231 cells measured at 1 to 5 uM after 24 hrs by Western blot analysis; assay type: functional, cell-based; conditions: dose 1-5 µM
[27] = tested on: MDA-MB-468; assay: Effect on Akt expression in human MDA-MB-468 cells measured at 1 to 5 uM after 24 hrs by Western blot analysis; assay type: functional, cell-based; conditions: dose 1-5 µM
[28] = Toxicity in NOD/SCID mouse assessed as change in body weight at 5 to 10 mg/kg, ip treated for 33 days; assay type: organism-based; conditions: in vivo, 792 h, dose 5-10 mg/kg, time 33 day
[29] = Toxicity in NOD/SCID mouse assessed as cytotoxicity in heart at 10 mg/kg, ip treated for 33 days by H&E staining analysis; assay type: organism-based; conditions: in vivo, 792 h, time 33 day
[30] = Toxicity in NOD/SCID mouse assessed as cytotoxicity in liver at 10 mg/kg, ip treated for 33 days by H&E staining analysis; assay type: organism-based; conditions: in vivo, 792 h, time 33 day
[31] = Toxicity in NOD/SCID mouse assessed as cytotoxicity in spleen at 10 mg/kg, ip treated for 33 days by H&E staining analysis; assay type: organism-based; conditions: in vivo, 792 h, time 33 day
[32] = Toxicity in NOD/SCID mouse assessed as cytotoxicity in lung at 10 mg/kg, ip treated for 33 days by H&E staining analysis; assay type: organism-based; conditions: in vivo, 792 h, time 33 day
[33] = tested on: MDA-MB-468; assay: Antitumor activity against human MDA-MB-468 cells xenografted in NOD/SCID mouse assessed as increase in LC3B expression in tumor tissue at 5 to 10 mg/kg, ip treated for 33 days by immunohistochemical analysis; assay type: functional, organism-based; conditions: dose 5-10 mg/kg, time 33.0 day
[34] = tested on: MCF7; assay: Cytotoxicity against human MCF7 cells assessed as reduction in cell viability incubated for 96 hrs by MTT method; assay type: functional, cell-based; conditions: MCF7, 96 h
[35] = Selectivity index, ratio of IC50 for human MCF-10A cells to IC50 for human MBA-MB-231 cells; assay type: functional
[36] = Selectivity index, ratio of IC50 for HEK293 cells to IC50 for human MBA-MB-231 cells; assay type: toxicity; conditions: HEK293 cells versus MBA-MB-231 cells, read-out: Selectivity Index

C=C1C(=O)C2=C[C@H]1CCC(=O)[C@]1(C)[C@H](O)CCC(C)(C)[C@H]1C[C@H]2O
pIC50 [1]: 5.98
pIC50 [2]: 5.71
Activity [3]: Active
Activity [4]: 6.59%
Activity [5]: 13.6%
Activity [6]: 18%
Activity [7]: 12.5%
Activity [8]: Active
Activity [9]: 33.7%
Activity [10]: 34.5%
Activity [11]: 27.5%
Activity [12]: 59.6%
Activity [13]: 24.3%
Activity [14]: 56.9%
Activity [15]: 43.1%
Activity [16]: 78.5%
Activity [17]: 13.3%
Activity [18]: Active
Activity [19]: Active
Activity [20]: Active
Activity [21]: Active
inhibition at 0.2 µM [22]: 80%
Activity [23]: Active
Activity [24]: Active
Activity [25]: inactive
Activity [26]: inactive
Activity [27]: inactive
Activity [28]: Non-Toxic
Activity [29]: Non-Toxic
Activity [30]: Non-Toxic
Activity [31]: Non-Toxic
Activity [32]: Non-Toxic
Activity [33]: Active
pIC50 [34]: 6.95
Selectivity Index [35]: 14
selectivity ratio [36]: 26.2
